Data: paper PMC6212638, “In silico identification and biochemical characterization of the human dicarboxylate clamp TPR protein interaction network” (FEBS Open Bio, 2018)

Columns and labels:
Tom70 [1] = assay: Dot-blot assay of Tom70 with HRP-conjugated Hsp90 and Tom20 peptides in presence of unconjugated peptides; type: binding, human; details: 20 μM unconjugated peptide
Procedure: (§1) In subsequent experiments, non‐fluorescent peptides were used. […] Cell impermeable Hsp90 peptide served as a treatment control.
Figure 6 In vitro and in situ analysis of interactions of 10‐amino‐acid peptides corresponding to C termini of Hsp90 and Tom20 with Tom70. (A) Dot‐blot assay of interactions between Tom70 and HRP‐conjugated 10‐amino‐acid peptides corresponding to C termini of Hsp90 and Tom20 in the presence of 20 μM of unconjugated peptides. (B) Fluorescence imaging of HEK293 cells in the presence of 20 μM of fluorescein‐labeled Hsp90, R9–Hsp90, Tom20 and R9–Tom20 peptides. (C) Inhibition of Tom20–Tom70 and Hsp90–Tom70 interactions with R9–Hsp90 and R9–Tom20 in HEK293 cells measured by PLA. n = 3. Graphs were created and SD values were calculated using PRISM, version 7.02. *P‐value < 0.05 compared to control; comparisons are based on one‐way ANOVA. (D) Inhibition of Tom20–Tom70 and Hsp90–Tom70 interactions with R9–Hsp90 and R9–Tom20 in HEK293 cells measured by mammalian two‐hybrid assay. n = 3. Graphs were created and SD values were calculated using PRISM, version 7.02. *P‐value < 0.05 compared to control; comparisons are based on one‐way ANOVA.

Tom70 [2] = details: cited from earlier work
Description: First, we tested the ability of unlabeled Hsp90 and Tom20 peptides to compete with their HRP‐labeled analogues for binding to Tom70, the known partner for both Hsp90 and Tom20 proteins.

FKBP51 = target: T1, FKBP51 (Homo sapiens, UniProt Q13451); assay: Dot-blot competition assay: HRP-conjugated peptide vs unlabeled peptide on immobilized FKBP51
T1 sequence (Q13451 1-457): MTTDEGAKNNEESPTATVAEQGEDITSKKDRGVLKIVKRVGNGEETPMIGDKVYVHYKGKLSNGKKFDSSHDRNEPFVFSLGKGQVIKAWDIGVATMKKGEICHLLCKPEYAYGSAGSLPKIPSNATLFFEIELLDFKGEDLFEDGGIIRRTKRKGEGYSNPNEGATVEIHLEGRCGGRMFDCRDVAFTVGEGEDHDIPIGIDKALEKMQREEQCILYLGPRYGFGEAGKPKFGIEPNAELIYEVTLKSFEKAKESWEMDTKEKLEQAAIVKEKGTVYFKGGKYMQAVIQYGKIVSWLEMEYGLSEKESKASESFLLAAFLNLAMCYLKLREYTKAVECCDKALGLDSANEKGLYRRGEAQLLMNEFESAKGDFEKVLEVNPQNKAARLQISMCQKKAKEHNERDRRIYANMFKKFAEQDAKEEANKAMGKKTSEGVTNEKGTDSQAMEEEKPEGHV
Procedure: (§4) Full‐length cDNA clones for respective proteins were obtained from IMAGE consortium (SourceBioScience, Nottingham, UK) and PCR amplified with forward and reverse primers (Table 1) containing overhangs with appropriate restriction sites and cloned into pGEX6 vectors (GE Healthcare, Uppsala, Sweden). Inserts were sequence verified, and the plasmids were transformed into BL21 Escherichia coli strain. Glutathione‐S‐transferase (GST) fusion proteins were purified from 1 L overnight culture after 2 h of induction with 1 mM IPTG. Cells were pelleted, resuspended in 1× PBS and sonicated 3 × 20 s on ice. EDTA and protease inhibitor cocktail were added to prevent proteolysis. The suspension was centrifuged for 30 min at 50 000 g to remove cell debris, and supernatant was loaded onto a 1 mL GSTrap™ 4B column (GE Healthcare). After column washing with 30 mL PBS, GST fusion proteins were eluted with 2.5 mL 10 mM glutathione in PBS. Eluate was passed through a PD‐10 column (GE Healthcare) to remove free glutathione. To prepare GST‐tag‐free proteins, we performed overnight cleavage at 4 °C with PreScission protease (GE Healthcare) followed by passage through a GSTrap column to remove free GST protein. Average yield from 1 L starting culture was 1–5 mg of purified proteins. Protein‐containing fractions were collected, checked with SDS/PAGE and kept at −20 °C.
(§5) Peptides were dissolved in HEPES‐KOH buffer pH 7.2 at concentration of 1 mg·mL^−1 and incubated with equimolar amounts of activated horseradish peroxidase (HRP) (Lightning‐link® HRP labeling kit cat. 701‐004, from Innova Biosciences) for 5 min. Reaction was quenched with 0.1 M Tris/HCl, pH 7.5 for 10 min and the products were passed through PD‐10 columns (GE Healthcare). Dot‐blot experiments were performed using GST‐tag‐free proteins applied to the nitrocellulose membrane. After blocking of membrane with 3% BSA in TBS‐T buffer for 1 h and subsequent wash with TBS‐T, HRP‐conjugated peptides (1 × 500 times dilution) were applied and incubated for 1 h. After subsequent washing (3 × 10 min, TBS‐T), membrane was dried and signals were quantified using a digital Fujifilm LAS3000 imager and LAS3000 software. In competition experiments, increasing concentrations of unlabeled peptides were co‐incubated with peptide–HRP conjugates.
(§6) Each peptide was separately coupled to HRP.

AIP = target: T2, AIP (Homo sapiens, UniProt O00170); assay: Dot-blot competition assay: HRP-conjugated peptide vs unlabeled peptide on nitrocellulose-immobilized AIP
T2 sequence (O00170 1-330): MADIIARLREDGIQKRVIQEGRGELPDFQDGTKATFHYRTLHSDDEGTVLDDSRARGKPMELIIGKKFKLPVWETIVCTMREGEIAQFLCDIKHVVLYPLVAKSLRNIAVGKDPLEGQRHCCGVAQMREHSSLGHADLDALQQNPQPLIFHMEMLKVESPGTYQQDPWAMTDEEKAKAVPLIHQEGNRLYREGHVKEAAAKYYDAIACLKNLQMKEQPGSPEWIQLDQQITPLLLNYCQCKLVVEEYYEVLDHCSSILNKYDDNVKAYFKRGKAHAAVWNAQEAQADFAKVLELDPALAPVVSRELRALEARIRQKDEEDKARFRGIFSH
Procedure: as §4, §5, §6

HEK293 cells = details: N-terminally fluorescein-labeled peptides, 20 μM, fluorescence imaging
Description: (§2) P < 0.05 was considered to be statistically significant. Data are presented as mean ± SEM.

Tom20–Tom70 interaction [3] = assay: Proximity ligation assay (PLA) of Tom20–Tom70 interaction in HEK293 cells; type: cell-based, human; details: non-fluorescent peptide, n = 3
Description: as §2, §1

Hsp90–Tom70 interaction [4] = assay: Proximity ligation assay (PLA) of Hsp90–Tom70 interaction in HEK293 cells; type: cell-based, human; details: non-fluorescent peptide, n = 3
Description: as §2, §1

Tom20–Tom70 interaction [5] = assay: Mammalian two-hybrid assay (luciferase) of Tom20–Tom70 interaction in HEK293 cells; type: cell-based, human; details: peptide 20 μM added 4 h after transfection, 48 h, n = 3
Description: (§3) Tom70 sequence was PCR amplified and subcloned into pACT vector of CheckMate™ mammalian two‐hybrid system (Promega, Madison, WI, USA) using SalI/NotI restriction sites, and Hsp90 and Tom20 DNA sequences were PCR amplified and subcloned into pBIND vector using SalI/NotI restriction sites. Tom70‐pACT/Hsp90‐pBIND and Tom70‐pACT/Tom20‐pBIND were co‐transfected with pLuc plasmid in a 1 : 1 : 1 molar ratio into HEK293 cells using Lipofectamine 3000 transfection reagent (Invitrogen, Carlsbad, CA, USA) according to the manufacturer's protocol. Triplicate samples in 96‐well cell culture plates Corning (Tewskbury, MA, USA) were used in each experiment. Hsp90, R9–Hsp90, Tom20 and R9–Tom20 peptides at concentration 20 μM were added 4 h after transfection. HEK293 cells were cultivated for 48 h, washed twice with PBS and lysed with PBS containing 1% Triton X‐100. Luciferase expression was detected using a luciferase assay kit from BioThema (Huddinge, Sweden) on a 96‐well plate reader from Perkin Elmer (Upplands Väsby, Stockholm, Sweden).
as §1

Hsp90–Tom70 interaction [6] = assay: Mammalian two-hybrid assay (luciferase) of Hsp90–Tom70 interaction in HEK293 cells; type: cell-based, human; details: peptide 20 μM added 4 h after transfection, 48 h, n = 3
Description: as §3, §1

Row | Compound | competition with HRP-conjugated Hsp90 peptide for Tom70 binding (Tom70 [1]) | competition with HRP-conjugated Tom20 peptide for Tom70 binding (Tom70 [1]) | affinity for Tom70 relative to 10-mer Tom20 peptide (Tom70 [2]) | IC50 (FKBP51) [µM] | IC50 (AIP) [µM] | fluorescein staining of HEK293 cells (peptide translocation into the cells) (HEK293 cells) | decrease of Tom20–Tom70 interaction signal (PLA) (Tom20–Tom70 interaction [3]) | decrease of Hsp90–Tom70 interaction signal (PLA) (Hsp90–Tom70 interaction [4]) | inhibition of Tom20–Tom70 interaction (mammalian two-hybrid, luciferase) (Tom20–Tom70 interaction [5]) | inhibition of Hsp90–Tom70 interaction (mammalian two-hybrid, luciferase) (Hsp90–Tom70 interaction [6])
1 | CSCC[C@H](NC(=O)[C@H](CCCNC(=N)N)NC(=O)[C@H](CO)NC(=O)[C@H](C)NC(=O)[C@H](CC(=O)O)NC(=O)[C@@H](N)CCC(=O)O)C(=O)N[C@@H](CCC(=O)O)C(=O)N[C@@H](CCC(=O)O)C(=O)N[C@H](C(=O)N[C@@H](CC(=O)O)C(=O)O)C(C)C [Hsp90β] | effectively competes | effectively competes | more than 10 fold | 18.9 ± 3 | 17.8 ± 1.35 |  |  |  |  | 
2 | H-RRRRRRRRREDASRMEEVD-OH [R9–Hsp90, cell‐permeant analog of the Hsp90 peptide containing a nine‐arginine N‐terminal tag] |  |  |  |  |  | resulted in HEK293 cells staining | approximately 50% | approximately 50% | sensitive | inhibited
